pIC50: −log10 of the molar value.
What was measured:
[1] = tested on: all the breast cancer cell lines; experiment: PI assay, summary over the breast cancer cell line panel; assay type: cell-based; details: Homo sapiens; nine breast cancer cell lines of Table 1B; read-out: IC50 range over all the breast cancer cell lines
Experimental: (§1) The propidium iodide fluorescence assay (PI) was carried out according to the procedure mentioned in Anticancer Drugs, 1995, 6, 522-32. The assay was developed to characterize the in vitro growth of human tumor cell lines as well as to test the cytotoxic activity of the compounds. Propidium iodide (PI) was used as a dye, which penetrates only damaged cellular membranes. Intercalation complexes are formed by PI with double-stranded DNA, which effect an amplification of the fluorescence. After freezing the cells at −20° C. for 24 h, PI had access to total DNA leading to total cell population counts. Background readings were obtained from cell-free wells containing media and propidium iodide. The human breast cancer cell lines (i.e. […] Control wells were treated with vehicle (DMSO). At the end of the incubation periods, the plates were assayed using PI cytotoxicity assay protocol. Percent cytoxicity was calculated at various drug concentrations and from the graph plotted the IC50 values were determined.

[2] = tested on: MDA-MB-435-S; experiment: Cytotoxicity assay using propidium iodide (PI); assay type: cell-based; details: Homo sapiens
Experimental: as §1

[3] = tested on: ZR-75-1; experiment: Cytotoxicity assay using propidium iodide (PI); assay type: cell-based; details: Homo sapiens
Experimental: as §1

[4] = tested on: BT-549; experiment: Cytotoxicity assay using propidium iodide (PI); assay type: cell-based; details: Homo sapiens, 48 h treatment
Experimental: as §1

[5] = tested on: HBL-100; experiment: Cytotoxicity assay using propidium iodide (PI); assay type: cell-based; details: Homo sapiens
Experimental: as §1

[6] = tested on: T47-D; experiment: Cytotoxicity assay using propidium iodide (PI); assay type: cell-based; details: Homo sapiens, T47D
Experimental: as §1

[7] = tested on: MDA-MB-361; experiment: Cytotoxicity assay using propidium iodide (PI); assay type: cell-based; details: Homo sapiens
Experimental: as §1

[8] = tested on: PARP; experiment: Western blot for PARP cleavage in MDA-MB-468; assay type: cell-based, human; details: 1.5 μM and 5 μM, 24 h
Experimental: (§2) Correlation of PARP activity and cell cycle proteins cyclin D1, total Rb and pRb 780 were studied in two TNBC cell lines viz. MDA-MB-468 and MDA-MB-231. MDA-MB-231 and MDA-MB-468 cells were seeded in RPMI 1460 medium with 10% FCS in […] tissue culture flask and incubated for 24 h. These cells were treated at 1.5 μM and 5 μM Compound A for 24 h. The cells were harvested (trypsinised) and lysed using lysis buffer. Western blotting was carried out (Molecular Cancer […], 2007, 6, 918-925) using specific antibody to PAR, PARP, cyclin D1, CDK4 and pRb Ser 780.

[9] = target: T1, PARP (Homo sapiens, UniProt P09874); experiment: PARP enzyme activity measured by PAR polymers (Western blot), MDA-MB-231; assay type: cell-based; details: 1.5 μM and 5 μM, 24 h
T1 construct: endogenous in cells; host or cells: MDA-MB-231; MDA-MB-468
T1 sequence (P09874 2-1014 limits assumed): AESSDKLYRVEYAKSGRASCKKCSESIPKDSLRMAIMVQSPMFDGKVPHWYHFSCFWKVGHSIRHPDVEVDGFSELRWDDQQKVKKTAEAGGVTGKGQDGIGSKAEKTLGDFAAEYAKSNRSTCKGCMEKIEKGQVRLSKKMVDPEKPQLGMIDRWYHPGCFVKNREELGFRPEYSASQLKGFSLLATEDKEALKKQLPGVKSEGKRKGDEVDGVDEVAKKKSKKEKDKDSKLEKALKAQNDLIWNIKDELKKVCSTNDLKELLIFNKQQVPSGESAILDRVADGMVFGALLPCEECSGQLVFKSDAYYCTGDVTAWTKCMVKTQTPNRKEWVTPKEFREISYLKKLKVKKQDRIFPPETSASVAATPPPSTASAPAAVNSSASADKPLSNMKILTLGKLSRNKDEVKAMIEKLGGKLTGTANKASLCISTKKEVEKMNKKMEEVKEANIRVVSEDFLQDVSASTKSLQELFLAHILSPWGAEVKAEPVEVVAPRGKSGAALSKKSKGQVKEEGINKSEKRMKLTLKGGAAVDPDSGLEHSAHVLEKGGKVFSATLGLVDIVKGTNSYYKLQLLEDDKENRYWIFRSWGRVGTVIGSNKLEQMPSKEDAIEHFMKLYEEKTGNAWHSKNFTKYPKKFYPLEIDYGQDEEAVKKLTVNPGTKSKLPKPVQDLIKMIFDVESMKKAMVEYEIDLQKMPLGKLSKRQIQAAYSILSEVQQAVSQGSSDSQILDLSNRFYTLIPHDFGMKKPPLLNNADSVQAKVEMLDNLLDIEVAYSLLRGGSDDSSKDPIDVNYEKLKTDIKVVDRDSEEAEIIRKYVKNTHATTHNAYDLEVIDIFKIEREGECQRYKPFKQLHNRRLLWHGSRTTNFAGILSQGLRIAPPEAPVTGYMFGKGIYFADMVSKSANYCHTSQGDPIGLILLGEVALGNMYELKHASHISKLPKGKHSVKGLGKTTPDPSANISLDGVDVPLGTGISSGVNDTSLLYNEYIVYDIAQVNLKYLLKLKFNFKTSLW
Experimental: To study PARP enzyme activity, PAR polymer formation was measured. MDA-MB-231 and MDA-MB-468 cells were seeded in RPMI 1460 medium with 10% FCS in […] tissue culture flask and incubated for 24 h. These cells were treated at 1.5 μM and 5 μM of Compound A for 24 h. The cells were harvested (trypsinised) and lysed using lysis buffer. Western blotting (Molecular Cancer Therapeutics, 2007, 6, 918-925) was done with specific antibody to PAR.
as §2

[10] = tested on: Bcl-2; experiment: Western blot analysis in MCF-7 cells; assay type: cell-based, human; details: 1.5 and 4.5 μM, 6, 24 and 30 h
Experimental: The Western blot assay was carried out according to the procedure disclosed in Molecular Cancer Therapeutics, 2007, 6, 918-925 with some modifications.
MCF-7 and MDA-MB-231 cells were seeded in RPMI 1460 medium with 10% FCS in […] tissue culture flask and incubated for 24 h. The cells were treated with Compound A at 1.5 and 4.5 μM. At various time points, i.e. 6, 24 and 30 h the cells were harvested or trypsinized and lysed using lysis buffer (Sigma Aldrich, USA). Protein content was estimated. Lysate was applied to Sodium Dodecyl Sulphate-Polyacrylamide Gel Electrophoresis (SDS-PAGE) followed by western blotting (Molecular Cancer Therapeutics, 2007, 6, 918-925). Western blotting was done using specific antibodies to Bcl-2 and actin. The results are depicted in FIG. 4.

[11] = tested on: MCF-7; experiment: Cell cycle progression and apoptosis by flow cytometry (sub-G1); assay type: cell-based, human; details: 4.5 μM
Experimental: Time dependent effect of Compound A on cell cycle progression and apoptosis was evaluated in two breast cancer cell lines. The asynchronous human breast cancer cell lines MCF-7 (Her low, ER+, PR+, BRCA+/−allelic loss) and MDA-MB-231 cells were seeded in […] tissue culture flask at a density of 0.5×10^6 cells per flask in RPMI 1460 with 10% FCS. After 24 h, cells were treated with 4.5 μM of Compound A for 0, 24, 48 and 72 h. Both detached and adherent cells were harvested (trypsinised) at different time points as mentioned in Table 3. After washing in phosphate buffered saline (PBS), cells were fixed in ice-cold 70% ethanol and stored at −20° C. until further analysis.
Before analysis, cells were washed twice with PBS to remove the fixative and re-suspended in PBS containing 50 μg/mL propidium iodide and 50 μg/mL RNaseA. After incubation at room temperature (20-35° C.) for 20 min, cells were analyzed using flow cytometry. A Becton Dickinson FACS Calibur flow cytometer (BD, USA) was used for these studies. The argon ion laser set at 488 nm was used as an excitation source. Cells with DNA content between 2n and 4n were designated as being in G1, S and G2/M phases of the cell cycle, as defined by the level of red fluorescence. […] The number of cells in each cell cycle compartment was expressed as a percentage of the total number of cells present. The results are shown in Table 3 and graphically presented in FIG. 3A (MCF-7 cell lines) and FIG. 3B (MDA-MB-231 cell lines).

CN1CC[C@@H](c2c(O)cc(O)c3c(=O)cc(-c4ccccc4Cl)oc23)[C@@H]1CO.Cl [Compound A, (+)-trans-2-(2-Chloro-phenyl)-5,7-dihydroxy-8-(2-hydroxymethyl-1-methyl-pyrrolidin-3-yl)-chromen-4-one hydrochloride]
pIC50 [1]: 6.00 to 6.52 | pIC50 [2]: 6.52 | pIC50 [3]: 6.05 | pIC50 [4]: 6.10 | pIC50 [5]: 6.29 | pIC50 [6]: 6.30 | pIC50 [7]: 6.12 | PARP cleavage [8]: PARP cleavage was prominent | PARP enzyme activity (PAR polymer formation) [9]: inhibits PARP enzyme activity | expression of antiapoptotic protein Bcl-2 [10]: significantly down regulated from 24 h onwards | % Apoptosis ([11]; 0 h): 1% | % Apoptosis ([11]; 24 h): 52% | % Apoptosis ([11]; 48 h): 80% | % Apoptosis ([11]; 72 h): 88%

Source: US20130237582A1, “PHARMACEUTICAL COMBINATION OF PACLITAXEL AND A CDK INHIBITOR” (Piramal Enterprises Limited, priority 2010, published 2013)
